Test results from patent publication US20150056702A1, “METHOD AND KIT FOR CULTURING STEM CELLS” (China Medical University, priority 2013, published 2015).

Key:
[1] = system: ES cells; test: DNA microarray analysis of ES cells; type: cell-based, mouse
Description: The DNA microarray analysis was used to determine whether the gene expression profiles in various pathways in cells will be affected when the cells were cultured by a BP-containing medium.
An experimental group medium (BP10 or BP 40), a LIF-containing medium (without BP), and a control group medium (without BP) were used respectively in a 6-well culture dish to culture ES cells with an initial density of 1×10^4 per well for 24 hours. Next, performing total RNA extraction and the obtained RNA was labeled with Cy3. Samples were hybridized to Agilent Mouse G3 Whole Genome Oligo 86×60K microarrays (Agilent) according to the manufacturer's instructions. Arrays were scanned with a Microarray Scanner System and data was analyzed by using a GeneSpring GX software (Agilent).
According to the related research at present, the Jak-Stat signaling pathway is the most relevant in terms of stem cell self-renewal and pluripotency maintenance.

[2] = system: iPS cells; test: Embryoid body formation and differentiation of the generated iPS cells; type: cell-based, mouse; settings: iPS cells (T+P), BP10 medium, Tuj1, α-SMA, Gata4 staining
Description: An experimental group medium (BP10) was used to culture ES cells with an initial density of 1×10^4 per well in a 6-well culture dish. The ES cells were passaged 3 times and incubated for another 2 to 3 days in the Ultra Low Cluster Plate (Costar) containing the embryoid body formation medium [DMEM+20% FBS+β-mercaptoethanol (1 mM)+1% L-glutamine+1% NEAA], and then the embryoid body formation was observed. The embryoid bodies were placed into another 24-well culture dish (5 to 6 embryoid bodies/well) and incubated for another 3 days. Next, immunofluorescence staining was conducted to detect cells with an anti-Tuj1 antibody (ectoderm marker), an anti-α-SMA antibody (mesoderm marker) and an anti-Gata4 antibody (endoderm marker).
In addition, the iPS cells (T+P) were cultured by the steps shown in Example 7 to observe the embryoid body formation and differentiation.

[3] = BP40 medium (about 40 μg BP/ml), ES cells, 24 hours

CCCC=C1OC(=O)c2ccccc21 [BP, n-butylidenephthalide]
Amino acid metabolism: D, number of down-regulated genes [1, 3]: 2
Amino acid metabolism: I, number of up-regulated genes [1, 3]: 0
Amino acid metabolism: No. (regulated genes/genes of function) [1, 3]: 2/23
Apoptosis: % of genes regulated [1, 3]: 7.4%
Apoptosis: D, number of down-regulated genes [1, 3]: 6
Apoptosis: I, number of up-regulated genes [1, 3]: 1
Apoptosis: No. (regulated genes/genes of function) [1, 3]: 7/94
Calcium signaling pathway: % of genes regulated [1, 3]: 21.9%
Calcium signaling pathway: D, number of down-regulated genes [1, 3]: 30
Calcium signaling pathway: I, number of up-regulated genes [1, 3]: 2
Calcium signaling pathway: No. (regulated genes/genes of pathway) [1, 3]: 32/146
Cell adhesion molecules: % of genes regulated [1, 3]: 22.7%
Cell adhesion molecules: D, number of down-regulated genes [1, 3]: 21
Cell adhesion molecules: I, number of up-regulated genes [1, 3]: 13
Cell adhesion molecules: No. (regulated genes/genes of function) [1, 3]: 34/150
Cell communication: % of genes regulated [1, 3]: 21.7%
Cell communication: D, number of down-regulated genes [1, 3]: 18
Cell communication: I, number of up-regulated genes [1, 3]: 2
Cell communication: No. (regulated genes/genes of function) [1, 3]: 20/92
Cell cycle: % of genes regulated [1, 3]: 3.7%
Cell cycle: D, number of down-regulated genes [1, 3]: 6
Cell cycle: I, number of up-regulated genes [1, 3]: 0
Cell cycle: No. (regulated genes/genes of function) [1, 3]: 6/163
ECM-receptor interaction: % of genes regulated [1, 3]: 25.7%
ECM-receptor interaction: D, number of down-regulated genes [1, 3]: 16
ECM-receptor interaction: I, number of up-regulated genes [1, 3]: 3
ECM-receptor interaction: No. (regulated genes/genes of pathway) [1, 3]: 19/74
Insulin signaling pathway: % of genes regulated [1, 3]: 4.9%
Insulin signaling pathway: D, number of down-regulated genes [1, 3]: 3
Insulin signaling pathway: I, number of up-regulated genes [1, 3]: 2
Insulin signaling pathway: No. (regulated genes/genes of pathway) [1, 3]: 5/102
JAK-STAT signaling pathway: % of genes regulated [1, 3]: 25%
JAK-STAT signaling pathway: D, number of down-regulated genes [1, 3]: 27
JAK-STAT signaling pathway: I, number of up-regulated genes [1, 3]: 8
JAK-STAT signaling pathway: No. (regulated genes/genes of pathway) [1, 3]: 35/140
Lipid metabolism: % of genes regulated [1, 3]: 12.8%
Lipid metabolism: D, number of down-regulated genes [1, 3]: 12
Lipid metabolism: I, number of up-regulated genes [1, 3]: 2
Lipid metabolism: No. (regulated genes/genes of function) [1, 3]: 10/109
MAPK signaling: % of genes regulated [1, 3]: 10.6%
MAPK signaling: D, number of down-regulated genes [1, 3]: 19
MAPK signaling: I, number of up-regulated genes [1, 3]: 5
MAPK signaling: No. (regulated genes/genes of pathway) [1, 3]: 24/227
PPAR signaling pathway: % of genes regulated [1, 3]: 36.5%
PPAR signaling pathway: D, number of down-regulated genes [1, 3]: 14
PPAR signaling pathway: I, number of up-regulated genes [1, 3]: 12
PPAR signaling pathway: No. (regulated genes/genes of pathway) [1, 3]: 27/74
TGF-β signaling pathway: % of genes regulated [1, 3]: 13.3%
TGF-β signaling pathway: D, number of down-regulated genes [1, 3]: 1
TGF-β signaling pathway: I, number of up-regulated genes [1, 3]: 5
TGF-β signaling pathway: No. (regulated genes/genes of pathway) [1, 3]: 6/45
VEGF signaling pathway: % of genes regulated [1, 3]: 0%
VEGF signaling pathway: D, number of down-regulated genes [1, 3]: 0
VEGF signaling pathway: I, number of up-regulated genes [1, 3]: 0
VEGF signaling pathway: No. (regulated genes/genes of pathway) [1, 3]: 0/31
Wnt signaling pathway: % of genes regulated [1, 3]: 9.1%
Wnt signaling pathway: D, number of down-regulated genes [1, 3]: 6
Wnt signaling pathway: I, number of up-regulated genes [1, 3]: 0
Wnt signaling pathway: No. (regulated genes/genes of pathway) [1, 3]: 6/66
focal adhesion: % of genes regulated [1, 3]: 12.7%
focal adhesion: D, number of down-regulated genes [1, 3]: 20
focal adhesion: I, number of up-regulated genes [1, 3]: 2
focal adhesion: No. (regulated genes/genes of function) [1, 3]: 22/173
tight junction: % of genes regulated [1, 3]: 16.7%
tight junction: D, number of down-regulated genes [1, 3]: 9
tight junction: I, number of up-regulated genes [1, 3]: 2
tight junction: No. (regulated genes/genes of function) [1, 3]: 11/66
pathways of the genes significantly regulated ([1]; ES cells cultured with the BP-containing medium, result in words): majorly involved in the PPAR, ECM-receptor interaction, and/or Jak-Stat signaling pathways
embryoid body formation and differentiation of the iPS cells [2]: can differentiate into three germ layer cells
